How the values were obtained:
[1] = tested on: carageenan-induced edema; assay: Carrageenan-induced rat paw edema test (anti-inflammatory activity); type: in vivo, Sprague-Dawley rats
Summary of the method: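 Sprague-Dawley rats (male and female, 150-250 g), fasted 18 h, given compound orally at 50 mg/kg in 0.1% sodium CMC (alternatively i.v., s.c. or i.p.). 1% carrageenan injected sub-plantar in right hind paw 1 h later. Paw displacement read again 3 h later; % protection = [(Control−Test)/Control]×100 versus saline control.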

[2] = tested on: NF-κB; assay: TNF-α-induced NF-κB-dependent luciferase expression in HEK cells; type: cell-based; details: luciferase in HEK/NF-κB cells, as described in Example 398; for inhibition at 1 µM: Homo sapiens, HEK293, 1 uM, read-out: NFkB inhibition @ 1 uM
[3] = tested on: AP-1; assay: PMA-induced AP-1 luciferase expression in HEK cells; type: cell-based; details: luciferase in HEK/AP-1 cells, as described in Example 398; for inhibition at 1 µM: AP1, 1 uM
[4] = rat paw edema, 50 mg/kg, reading 3 hours after carrageenan; [(Control−Test)/Control]×100%
[5] = Rattus norvegicus, po, 3 h, rat paw edema, 50 mg/kg, reading 3 hours after carrageenan; [(Control−Test)/Control]×100%; read-out: % Protection P

Compound	% Protection P [1, 4] [%]	NFkB inhibition @ 1 uM [2]	AP-1 inhibition @ 1 uM [3]	inhibition in vivo at 50 mg/kg [1, 5] [%]	inhibition at 1 µM [2] [%]	inhibition at 1 µM [3] [%]	% Protection P ([1]; rat paw edema, 50 mg/kg, reading 3 hours after carrageenan; [(Control−Test)/Control]×100%; 50 mg/kg) [%]
CSc1ccc(-c2cc(-c3nc4ccccc4c(=O)n3-c3ccccc3C)sc2N2CCOCC2)cc1 [Example 282, 2-[4-(4-Methylsulfanylphenyl)-5-morpholin-4-yl-thiophen-2-yl]-3-0-tolyl-3H-quinazolin-4-one]	51	53	−18				
O=c1c2ccccc2nc(-c2cc(-c3ccc(Cl)cc3)c(N3CCOCC3)s2)n1-c1ccc(Cl)cc1 [Example 310, 2-[4-(4-Chloro-phenyl)-5-morpholin-4-yl-thiophene-2-yl]-3-(4-chloro-phenyl)-3H-quinazolin-4-one]				60	0	14	
O=C(c1ccc(Cl)cc1)c1sc(N2CCN(C(=O)c3ccco3)CC2)nc1-c1ccco1 [Example 373, (4-Chloro-phenyl)-{2-[4-(furan-2-carbonyl)-piperazin-1-yl]-4-furan-2-yl-thiazol-5-yl}-methanone]				42	-6.07	26.9	
O=c1c2ccccc2nc(-c2cc(-c3ccncc3)c(N3CCOCC3)s2)n1-c1ccc(Cl)cc1 [Example 313, 3-(4-Chloro-phenyl)-2-(5-morpholin-4-yl-4-pyridin-4-yl-thiophen-2-yl)-3H-quinazolin-4-one]				52	68	32	
CC(=O)c1ccc(-c2cc(-c3nc4ccccc4c(=O)n3-c3ccc(Cl)cc3)sc2N2CCOCC2)cc1 [Example 315, 2-[4-(4-Acetyl-phenyl)-5-morpholin-4-yl-thiophene-2-yl]-3-(4-chloro-phenyl)-3H-quinazolin-4-one]				51	0	7	
O=C(c1ccncc1)c1cc(-c2ccccc2)c(N2CCOCC2)s1 [Example 51, (5-Morpholin-4-yl-4-phenyl-thiophene-2-yl)-pyridine-4-yl-methanone]				39.6	8.36	16.8	
Nc1nc(Nc2ccc(Cl)cc2)sc1C(=O)c1ccccn1 [Example 340, [4-Amino-2-(4-chloro-phenylamino)-thiazol-5-yl]-pyridin-2-yl-methanone]				34	-18.2	57.3	
CC(=O)Nc1ccc(-c2cc(C(=O)c3ccncc3)sc2N2CCOCC2)cc1 [Example 75, N-{4-[2-Morpholin-4-yl-5-(pyridine-4-carbonyl)-thiophene-3-yl]-phenyl}-acetamide]				45.7	17.4	45.5	
Cc1c(OCC(F)(F)F)ccnc1-c1sc(N2CCN(C(=O)c3ccco3)CC2)nc1-c1ccccc1 [Example 389, Furan-2-yl-(4-{5-[3-methyl-4-(2,2,2-trifluoro-ethoxy)-pyridin-2-yl]-4-phenyl-thiazol-2-yl}-piperazin-1-yl)-methanone]				61.6	30.7	42.5	
CC(=O)Nc1ccc(-c2cc(-c3nc4ccccc4c(=O)n3-c3cccc(C)c3)sc2N2CCOCC2)cc1 [Example 286, N-{4-[2-Morpholin-4-yl-5-(4-oxo-3-m-tolyl-3-,4-dihydro-quinazolin-2-yl)-thiophene-3-yl]-phenyl}-acetamide]	52	35	13				
CNc1nc(C)c(C(=O)c2sc(NC)nc2C)s1 [Example 118, Bis-(4-methyl-2-methylamino-thiazole-5-yl)-methanone]				40.9	8.84	33.4	
O=C(c1ccc(Cl)cc1)c1sc(N2CCN(C(=O)c3ccco3)CC2)nc1-c1ccccc1 [Example 383, (4-Chloro-phenyl)-{2-[4-(furan-2-carbonyl)-piperazin-1-yl]-4-phenyl-thiazol-5-yl}-methanone]				62	-0.23	13.3	
CS(=O)(=O)c1ccc(-c2cc(-c3nc4ccccc4c(=O)n3-c3ccc(Cl)cc3)sc2N2CCOCC2)cc1 [Example 312, 2-[4-(4-Methanesulphonyl-phenyl)-5-morpholin-4-yl-thiophen-2-yl]-3-(4-chloro-phenyl)-3H-quinazolin-4-one]				57	0	7	
CS(=O)(=O)c1ccc(C(=O)c2sc(N3CCN(C(=O)c4ccco4)CC3)nc2-c2ccccc2)cc1 [Example 385, {2-[4-(Furan-2-carbonyl)-piperazin-1-yl]-4-phenyl-thiazol-5-yl}-(4-methanesulfonyl-phenyl)-methanone]				67	-15.1	6.44	
Cc1nc(Nc2ccccc2)sc1C(=O)c1sc(Nc2ccccc2)nc1C [Example 119, Bis-(4-methyl-2-phenylamino-thiazole-5-yl)-methanone]				45.5	8.39	26	
CSc1ccc(C(=O)c2cc(-c3cccnc3)c(N3CCOCC3)s2)cc1 [Example 107, (4-Methylsulfanyl-phenyl)-(5-morpholin-4-yl-4-pyridin-3-yl-thiophen-2-yl)-methanone]		1.69	19.05				−42.44
Cc1cccc(-n2c(-c3cc(-c4ccncc4)c(N4CCOCC4)s3)nc3ccccc3c2=O)c1 [Example 289, 2-(5-Morpholin-4-yl-4-pyridin-4-yl-thiophen-2-yl)-3-m-tolyl-3H-quinazolin-4-one]				30	42	35	
O=C(c1ccc(Cl)cc1Cl)c1sc(N2CCN(C(=O)c3ccco3)CC2)nc1-c1ccco1 [Example 374, (2,4-Dichloro-phenyl)-{2-[4-(furan-2-carbonyl)-piperazin-1-yl]-4-furan-2-yl-thiazol-5-yl}-methanone]				62.6	6.25	46.2	
Cc1ccc(Nc2nc(-c3ccccc3)c(C(=O)c3sc(Nc4ccc(C)cc4)nc3-c3ccccc3)s2)cc1 [Example 394, Bis-[2-(4-methyl-phenylamino)-4-phenyl-thiazol-5-yl]-methanone]				56	18.7	41.9	
4-{3-(4-Methanesulfonyl-phenyl)-5-[5-methyl-5-(2,2,2-trifluoro-ethoxy)-pyridine-2-yl]-thiophene-2-yl}-morpholine [Example 53]	2.08	−2.17	25.04				
COc1c(C)cnc(-c2sc(N3CCN(C(=O)c4ccco4)CC3)nc2-c2ccco2)c1C [Example 378, Furan-2-yl-{4-[4-furan-2-yl-5-(4-methoxy-3,5-dimethyl-pyridin-2-yl)-thiazol-2-yl]-piperazin-1-yl}-methanone]				84.2	22.1	43.3	
CC(=O)Nc1ccc(-c2cc(C(=O)c3ccc(Cl)cc3Cl)sc2N2CCOCC2)cc1 [Example 70, N-{4-[5-(2,4-Dichloro-benzoyl)-2-morpholin-4-yl-thiophene-3-yl]-phenyl}-acetamide]				39.2	18.6	54	
CC(=O)c1ccc(-n2c(-c3cc(-c4ccccc4)c(N4CCOCC4)s3)nc3ccccc3c2=O)cc1 [Example 314]	36	0	25				
Bis-[2-(2-benzoyl-amino)-4-benzayl-thiazole-5-yl]-methanone [Example 135]	34.72	39.98	41.43				
CNc1nc(-c2ccccc2)c(C(=O)c2sc(NC)nc2-c2ccccc2)s1 [Example 125, Bis-(2-methylamino-4-Phenyl-thiazole-5-yl)-methanone]				23.2	27.1	23.8	
CC(=O)c1ccc(-n2c(-c3cc(-c4ccncc4)c(N4CCOCC4)s3)nc3ccccc3c2=O)cc1 [Example 319, 3-(4-acetyl-phenyl)-2-(5-morpholin-4-yl-4-pyridin-4-yl-thiophen-2-yl)-3Hquinazolin-4-one]				81	66	84	
COc1c(C)cc(-c2cc(-c3ccncc3)c(N3CCOCC3)s2)nc1C [Example 100, 4-[5-(5-Methoxy-4,6-dimethyl-pyridin-2-yl)-3-pyridin-4-yl-thiophen-2-yl]-morpholine]				54.2	5.21	47.4	
O=c1c2ccccc2nc(-c2cc(-c3ccc(Cl)cc3)c(N3CCOCC3)s2)n1-c1ccccc1 [Example 273, 2-[4-(4-Chloro-phenyl)-5-morpholin-4-yl-thiophen-2-yl]-3-phenyl-3H-quinazolin-4-one]				0	-35	-17	
CC(=O)Nc1ccc(-c2cc(C(=O)c3ccccc3)sc2N2CCOCC2)cc1 [Example 66, N-[4-(5-Benzoyl-2-morpholin-4yl-thiophene-3-yl)-phenyl]-acetamide]				40	24.2	-2.98	

Reference: US8829014B2, “Thiazole and thiophene analogues, and their use in treating autoimmune diseases and cancers” (Board of Supervisors of Louisiana State University and …, priority 2006, dated 2014)
